Experimental data from patent publication US20250236589A1, “THERAPEUTIC PHENETHYLAMINE COMPOSITIONS AND METHODS OF USE” (Cybin IRL Limited, priority 2022, published 2025).
Like-named read-outs stand apart in the source and are kept apart here.

Tests used:
5-HT2C receptor = 5-HT2C receptor (Homo sapiens (Human), UniProt P28335); test: 5-HT2C functional assay, IP1 (IPOne); assay type: cell-based; conditions: for Emax: IP1 assay, relative to 5-HT
Description: 5-HT2A,2B,2C receptor-mediated Gq activation—canonical signaling pathways—[phosphoinositide hydrolysis leading to the production of inositol phosphate 1 (IP1, IPOne, Cisbio assay) or direct G-protein activation using TRUPATH technology]were measured as previously described (Porter, R. H. P., Benwell, K. R., Lamb, H., Malcolm, C. S., Allen, N. F., Revell, D. F., Adams, D. R. and Sheardown, M. J., 1999, Functional characterization of agonists at recombinant human 5-HT2a, 5HT2b and 5-HT2c receptors in CHO-K1 cells, Brit J Pharmacol 128, 13; Olsen, R. H. J., DiBerto, J. F., English, J. G. et al. TRUPATH, an open-source biosensor platform for interrogating the GPCR transducerome. […] Briefly, for the IPOne assay, for 5-HT2ARs, CHO-K1 or HEK-293 cells were incubated with test articles and 5-HT (positive control) in stimulation buffer containing LiCl. After incubation, cells were lysed and fluorescence acceptor and donor were added. FRET was measured after 60 min at room temperature using a microplate reader (Envision, Perkin Elmer). TRUPATH assays followed a similar workflow, except that different reagents were used, and LiCl was not included in the samples; the protocol was based on the report by Olsen, R. H. J. et al., cited above.

5-HT6 (h) = 5-HT6 (h) (Homo sapiens (Human), UniProt P50406); test: Off-target screen, radioligand displacement at 10 μM; assay type: binding; conditions: agonist radioligand
Muscarinic M1 (h) = Muscarinic M1 (h) (Homo sapiens (Human), UniProt P11229); test: as above; assay type: binding; conditions: antagonist radioligand
Muscarinic M5 (h) = Muscarinic M5 (h) (Homo sapiens (Human), UniProt P08912); test: as above; assay type: binding; conditions: antagonist radioligand
5-HT1B (h) = 5-HT1B (h) (Homo sapiens (Human), UniProt P28222); test: as above; assay type: binding; conditions: antagonist radioligand
Muscarinic M3 (h) = Muscarinic M3 (h) (Homo sapiens (Human), UniProt P20309); test: as above; assay type: binding; conditions: antagonist radioligand
[1] = tested on: Na+ channel (site 2) (rat cortex); test: as above; assay type: binding; conditions: antagonist radioligand
Dopamine D1 (h) = Dopamine D1 (h) (Homo sapiens (Human), UniProt P21728); test: as above; assay type: binding
5-HT transporter (h) = 5-HT transporter (h) (Homo sapiens (Human), UniProt P31645); test: as above; assay type: binding
Histamine H1 (h) = Histamine H1 (h) (Homo sapiens (Human), UniProt P35367); test: as above; assay type: binding
Adenosine A2A (h) = Adenosine A2A (h) (Homo sapiens (Human), UniProt P29274); test: as above; assay type: binding
Adrenergic β1 (h) = Adrenergic β1 (h) (Homo sapiens (Human), UniProt P08588); test: as above; conditions: read-out: binding at 10 μM
[2] = target: Calcitonin Gene-Related Peptide CGRP1 (h) (Homo sapiens (Human), UniProt Q16602); test: as above; conditions: read-out: binding at 10 μM
[3] = target: Cholecystokinin CCK1 (CCKA) (h) (Homo sapiens (Human), UniProt P32238); test: as above; conditions: read-out: binding at 10 μM
D2S (h) = D2S (h) (Homo sapiens (Human), UniProt P14416); test: as above; conditions: read-out: binding at 10 μM
D4.4 (h) = D4.4 (h) (Homo sapiens (Human), UniProt P21917); test: as above; conditions: read-out: binding at 10 μM
D5 (h) = D5 (h) (Homo sapiens (Human), UniProt P21918); test: as above; conditions: read-out: binding at 10 μM
Endothelin ETA (h) = Endothelin ETA (h) (Homo sapiens (Human), UniProt P25101); test: as above; conditions: read-out: binding at 10 μM
Endothelin ETB (h) = Endothelin ETB (h) (Homo sapiens (Human), UniProt P24530); test: as above; conditions: read-out: binding at 10 μM
[4] = target: CXCR2 (Interleukin-8B) (h) (Homo sapiens (Human), UniProt P25025); test: as above; conditions: read-out: binding at 10 μM
TNF-α (h) = test: as above; assay type: binding, human
Melatonin MT1 (h) = Melatonin MT1 (h) (Homo sapiens (Human), UniProt P48039); test: as above; conditions: read-out: binding at 10 μM
Muscarinic M2 (h) = Muscarinic M2 (h) (Homo sapiens (Human), UniProt P08172); test: as above; conditions: read-out: binding at 10 μM
κ-opioid (h) = κ-opioid (h) (Homo sapiens (Human), UniProt P41145); test: as above; conditions: read-out: binding at 10 μM
Prostaglandin EP2 (h) = Prostaglandin EP2 (h) (Homo sapiens (Human), UniProt P43116); test: as above; conditions: read-out: binding at 10 μM
[5] = tested on: P2X (ATP) (rat urinary bladder); test: as above; assay type: binding
Glucocorticoid GR (h) = Glucocorticoid GR (h) (Homo sapiens (Human), UniProt P04150); test: as above; conditions: read-out: binding at 10 μM
[6] = target: norepinephrine transporter (h) (Homo sapiens (Human), UniProt P23975); test: as above; conditions: read-out: binding at 10 μM
[7] = antagonist radioligand, read-out: inhibition at 10 μM

5-HT2C receptor, sequence (P28335 whole entry, looked up): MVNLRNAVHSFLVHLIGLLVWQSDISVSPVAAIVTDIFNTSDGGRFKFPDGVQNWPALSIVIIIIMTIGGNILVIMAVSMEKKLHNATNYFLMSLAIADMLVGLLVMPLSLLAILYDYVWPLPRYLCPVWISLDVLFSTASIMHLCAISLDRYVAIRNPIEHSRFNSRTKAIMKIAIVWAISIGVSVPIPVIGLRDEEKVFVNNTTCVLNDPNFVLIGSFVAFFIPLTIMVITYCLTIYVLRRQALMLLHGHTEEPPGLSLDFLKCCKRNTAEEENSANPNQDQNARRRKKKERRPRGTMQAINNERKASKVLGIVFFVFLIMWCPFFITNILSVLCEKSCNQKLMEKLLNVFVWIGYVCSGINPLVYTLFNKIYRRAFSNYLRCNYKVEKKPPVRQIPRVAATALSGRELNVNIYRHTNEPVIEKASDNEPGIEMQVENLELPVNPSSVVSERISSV
Histamine H1 (h), sequence (P35367 whole entry, looked up): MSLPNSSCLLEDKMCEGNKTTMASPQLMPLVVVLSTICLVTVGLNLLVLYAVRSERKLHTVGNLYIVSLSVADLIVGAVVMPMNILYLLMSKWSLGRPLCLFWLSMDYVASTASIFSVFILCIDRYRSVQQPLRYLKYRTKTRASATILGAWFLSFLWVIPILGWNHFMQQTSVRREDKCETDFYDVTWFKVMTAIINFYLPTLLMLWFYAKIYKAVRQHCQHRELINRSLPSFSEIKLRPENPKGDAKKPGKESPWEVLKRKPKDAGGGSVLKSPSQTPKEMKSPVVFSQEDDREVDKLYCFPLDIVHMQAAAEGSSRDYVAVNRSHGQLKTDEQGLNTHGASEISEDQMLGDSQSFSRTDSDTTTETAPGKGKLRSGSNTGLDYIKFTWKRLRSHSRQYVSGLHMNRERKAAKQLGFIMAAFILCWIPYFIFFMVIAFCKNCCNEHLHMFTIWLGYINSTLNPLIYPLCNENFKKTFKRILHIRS
Calcitonin Gene-Related Peptide CGRP1 (h), sequence (Q16602 whole entry, looked up): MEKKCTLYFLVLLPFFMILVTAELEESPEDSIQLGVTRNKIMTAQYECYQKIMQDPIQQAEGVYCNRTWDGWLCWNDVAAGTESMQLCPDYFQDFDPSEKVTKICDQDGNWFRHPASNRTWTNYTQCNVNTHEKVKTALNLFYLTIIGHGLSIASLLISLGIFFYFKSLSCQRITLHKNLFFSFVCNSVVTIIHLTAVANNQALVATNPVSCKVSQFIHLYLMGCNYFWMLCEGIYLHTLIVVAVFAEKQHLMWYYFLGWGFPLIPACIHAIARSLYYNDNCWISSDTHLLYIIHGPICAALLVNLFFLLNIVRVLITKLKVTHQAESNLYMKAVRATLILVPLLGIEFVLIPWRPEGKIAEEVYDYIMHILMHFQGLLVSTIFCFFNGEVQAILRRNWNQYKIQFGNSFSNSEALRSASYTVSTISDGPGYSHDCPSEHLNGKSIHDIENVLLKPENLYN
Calcitonin Gene-Related Peptide CGRP1 (h), sequence (O60894 whole entry partner, looked up): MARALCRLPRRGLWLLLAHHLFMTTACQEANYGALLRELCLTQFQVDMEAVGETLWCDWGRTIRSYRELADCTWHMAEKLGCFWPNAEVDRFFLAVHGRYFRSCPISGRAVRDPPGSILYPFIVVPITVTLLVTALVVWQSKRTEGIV
Melatonin MT1 (h), sequence (P48039 whole entry, looked up): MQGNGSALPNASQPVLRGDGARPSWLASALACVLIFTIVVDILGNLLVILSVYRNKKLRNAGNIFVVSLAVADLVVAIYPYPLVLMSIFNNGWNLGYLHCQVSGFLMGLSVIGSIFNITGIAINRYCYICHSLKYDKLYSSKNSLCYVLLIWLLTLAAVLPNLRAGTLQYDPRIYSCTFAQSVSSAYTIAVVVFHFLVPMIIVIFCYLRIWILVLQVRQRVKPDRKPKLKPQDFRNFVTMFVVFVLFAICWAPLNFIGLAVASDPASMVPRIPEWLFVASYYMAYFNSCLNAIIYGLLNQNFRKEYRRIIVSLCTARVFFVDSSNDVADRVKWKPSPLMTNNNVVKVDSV
Muscarinic M3 (h), sequence (P20309 whole entry, looked up): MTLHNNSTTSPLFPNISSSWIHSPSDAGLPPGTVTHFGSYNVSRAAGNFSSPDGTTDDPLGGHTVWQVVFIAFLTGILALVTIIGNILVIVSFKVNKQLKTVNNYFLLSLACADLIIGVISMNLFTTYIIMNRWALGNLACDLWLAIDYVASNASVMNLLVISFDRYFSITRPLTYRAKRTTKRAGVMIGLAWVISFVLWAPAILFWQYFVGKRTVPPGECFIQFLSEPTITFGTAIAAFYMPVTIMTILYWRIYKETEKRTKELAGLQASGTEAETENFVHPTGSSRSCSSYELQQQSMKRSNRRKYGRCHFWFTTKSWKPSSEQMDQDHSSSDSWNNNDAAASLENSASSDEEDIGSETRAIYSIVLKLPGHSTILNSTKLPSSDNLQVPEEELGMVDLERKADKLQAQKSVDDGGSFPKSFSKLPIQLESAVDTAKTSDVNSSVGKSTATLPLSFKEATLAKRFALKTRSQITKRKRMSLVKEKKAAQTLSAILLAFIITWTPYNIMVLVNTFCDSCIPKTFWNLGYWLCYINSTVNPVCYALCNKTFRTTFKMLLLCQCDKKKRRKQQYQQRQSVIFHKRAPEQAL
Adenosine A2A (h), sequence (P29274 whole entry, looked up): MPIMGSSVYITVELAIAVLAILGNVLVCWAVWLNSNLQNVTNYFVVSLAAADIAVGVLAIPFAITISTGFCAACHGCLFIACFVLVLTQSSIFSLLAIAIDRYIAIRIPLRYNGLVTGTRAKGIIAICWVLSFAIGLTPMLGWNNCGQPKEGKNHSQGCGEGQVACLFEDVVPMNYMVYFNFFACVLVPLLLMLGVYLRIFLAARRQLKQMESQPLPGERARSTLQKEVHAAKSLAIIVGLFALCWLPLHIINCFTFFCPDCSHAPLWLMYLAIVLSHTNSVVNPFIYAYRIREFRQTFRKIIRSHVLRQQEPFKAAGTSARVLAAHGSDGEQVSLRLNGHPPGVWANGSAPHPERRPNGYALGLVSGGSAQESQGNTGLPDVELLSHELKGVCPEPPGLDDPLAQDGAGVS
D5 (h), sequence (P21918 whole entry, looked up): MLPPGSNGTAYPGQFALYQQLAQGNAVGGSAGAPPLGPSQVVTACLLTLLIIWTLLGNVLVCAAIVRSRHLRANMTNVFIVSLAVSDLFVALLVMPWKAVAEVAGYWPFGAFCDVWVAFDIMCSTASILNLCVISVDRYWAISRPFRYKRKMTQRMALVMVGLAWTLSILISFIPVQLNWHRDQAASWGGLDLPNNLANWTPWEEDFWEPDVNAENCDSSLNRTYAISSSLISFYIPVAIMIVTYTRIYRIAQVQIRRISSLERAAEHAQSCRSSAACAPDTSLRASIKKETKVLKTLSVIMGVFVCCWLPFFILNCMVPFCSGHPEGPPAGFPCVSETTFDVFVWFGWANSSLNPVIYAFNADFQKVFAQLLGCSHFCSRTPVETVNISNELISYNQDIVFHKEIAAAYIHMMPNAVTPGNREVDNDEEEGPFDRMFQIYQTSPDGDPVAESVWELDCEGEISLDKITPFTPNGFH
5-HT1B (h), sequence (P28222 whole entry, looked up): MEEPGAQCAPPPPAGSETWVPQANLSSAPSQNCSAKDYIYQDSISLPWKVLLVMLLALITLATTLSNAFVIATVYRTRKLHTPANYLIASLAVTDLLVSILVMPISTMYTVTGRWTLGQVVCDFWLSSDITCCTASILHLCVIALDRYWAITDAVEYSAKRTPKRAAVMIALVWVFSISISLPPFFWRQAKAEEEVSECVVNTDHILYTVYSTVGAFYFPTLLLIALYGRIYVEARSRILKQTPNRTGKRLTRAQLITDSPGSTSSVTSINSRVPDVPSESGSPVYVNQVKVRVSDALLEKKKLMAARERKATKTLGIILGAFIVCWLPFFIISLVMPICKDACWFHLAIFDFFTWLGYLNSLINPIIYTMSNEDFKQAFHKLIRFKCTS
Muscarinic M2 (h), sequence (P08172 whole entry, looked up): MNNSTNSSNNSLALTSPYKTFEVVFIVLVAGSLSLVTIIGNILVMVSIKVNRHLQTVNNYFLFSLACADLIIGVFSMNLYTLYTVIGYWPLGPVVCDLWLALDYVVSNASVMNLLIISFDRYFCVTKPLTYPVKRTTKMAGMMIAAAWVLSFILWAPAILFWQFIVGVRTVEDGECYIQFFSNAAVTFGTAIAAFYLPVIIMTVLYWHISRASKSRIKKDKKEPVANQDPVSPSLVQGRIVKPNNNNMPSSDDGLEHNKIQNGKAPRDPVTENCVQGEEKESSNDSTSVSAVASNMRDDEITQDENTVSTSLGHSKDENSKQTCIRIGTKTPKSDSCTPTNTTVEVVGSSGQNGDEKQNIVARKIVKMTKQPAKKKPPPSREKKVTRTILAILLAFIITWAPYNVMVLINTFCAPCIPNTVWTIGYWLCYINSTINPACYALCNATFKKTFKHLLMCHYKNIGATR
Muscarinic M5 (h), sequence (P08912 whole entry, looked up): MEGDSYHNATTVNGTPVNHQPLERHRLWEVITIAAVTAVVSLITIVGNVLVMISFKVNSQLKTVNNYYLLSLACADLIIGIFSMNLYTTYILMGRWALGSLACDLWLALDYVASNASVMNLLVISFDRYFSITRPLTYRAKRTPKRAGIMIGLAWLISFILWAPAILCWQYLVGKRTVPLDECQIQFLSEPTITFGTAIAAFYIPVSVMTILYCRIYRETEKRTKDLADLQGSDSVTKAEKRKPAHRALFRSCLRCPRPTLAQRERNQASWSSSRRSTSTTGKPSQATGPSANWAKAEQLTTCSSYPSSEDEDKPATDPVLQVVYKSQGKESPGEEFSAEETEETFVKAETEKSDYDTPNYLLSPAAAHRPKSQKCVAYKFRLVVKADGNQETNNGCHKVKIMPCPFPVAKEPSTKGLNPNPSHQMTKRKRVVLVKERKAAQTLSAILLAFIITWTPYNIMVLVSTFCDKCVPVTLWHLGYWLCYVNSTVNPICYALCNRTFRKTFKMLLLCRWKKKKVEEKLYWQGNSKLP

Row | SMILES | EC50 (5-HT2C receptor) | Emax (5-HT2C receptor) | inhibition at 10 µM (5-HT6 (h)) | inhibition at 10 µM (Muscarinic M1 (h)) | inhibition at 10 µM (Muscarinic M5 (h)) | inhibition at 10 µM (5-HT1B (h)) | inhibition at 10 µM (Muscarinic M3 (h)) | inhibition at 10 µM [1] | binding at 10 μM (Adenosine A2A (h)) | inhibition at 10 µM (Adrenergic β1 (h)) | inhibition at 10 µM [2] | inhibition at 10 µM [3] | inhibition at 10 µM (D2S (h)) | inhibition at 10 µM (D4.4 (h)) | inhibition at 10 µM (D5 (h)) | inhibition at 10 µM (Endothelin ETA (h)) | inhibition at 10 µM (Endothelin ETB (h)) | inhibition at 10 µM [4] | binding at 10 μM (TNF-α (h)) | inhibition at 10 µM (Melatonin MT1 (h)) | further results
1 | COc1cc(SC(F)(F)F)c(OC)cc1CCN [Compound I-1, 2-(2,5-dimethoxy-4-((trifluoromethyl)thio)phenyl)ethan-1-amine] | 7.3 nM | ~99% | > 80% | > 80% | > 80% | > 80% | 79% | 68.4% inhibition at 10 μM | NB (inhibited less than 50% of radioligand bound to them, and therefore it can be concluded they do not bind (“no binding,” NB)) | < 50% | < 50% | < 50% | < 50% | < 50% | < 50% | < 50% | < 50% | < 50% | NB (inhibited less than 50% of radioligand bound to them, and therefore it can be concluded they do not bind (“no binding,” NB)) | < 50% | activation selectivity for 5-HT2C over 5-HT2B (5-HT2C receptor; EC50, IP1): ~12 fold; inhibition at 10 µM (Dopamine D1 (h); [7]): 57%; inhibition at 10 µM (5-HT transporter (h); read-out: binding at 10 μM): < 50%; inhibition at 10 µM (Histamine H1 (h); read-out: binding at 10 μM): < 50%; inhibition at 10 µM (Muscarinic M2 (h)): < 50%; inhibition at 10 µM (κ-opioid (h)): < 50%; inhibition at 10 µM (Prostaglandin EP2 (h)): < 50%; binding at 10 μM [5]: NB (inhibited less than 50% of radioligand bound to them, and therefore it can be concluded they do not bind (“no binding,” NB)); inhibition at 10 µM (Glucocorticoid GR (h)): < 50%; inhibition at 10 µM [6]: < 50%
2 | COc1cc(CC(C)N)c(OC)cc1I (racemic) [DOI, (±)-2,5-dimethoxy-4-iodoamphetamine, reference compound] | 8 nM | ~108% | 64.4% | 71.8% | 62.6% | 52.7% | 60.4% | 53.5% inhibition at 10 μM | NB (inhibited less than 50% of radioligand bound to them, and therefore it can be concluded they do not bind (“no binding,” NB)) | < 50% | < 50% | < 50% | < 50% | < 50% | < 50% | < 50% | < 50% | < 50% | NB (inhibited less than 50% of radioligand bound to them, and therefore it can be concluded they do not bind (“no binding,” NB)) | < 50% | inhibition at 10 µM (Dopamine D1 (h); read-out: binding at 10 μM): < 50%; inhibition at 10 µM (5-HT transporter (h); [7]): 76.2%; inhibition at 10 µM (Histamine H1 (h); [7]): 64.6%; inhibition at 10 µM (Muscarinic M2 (h)): < 50%; inhibition at 10 µM (κ-opioid (h)): < 50%; inhibition at 10 µM (Prostaglandin EP2 (h)): < 50%; binding at 10 μM [5]: NB (inhibited less than 50% of radioligand bound to them, and therefore it can be concluded they do not bind (“no binding,” NB)); inhibition at 10 µM (Glucocorticoid GR (h)): < 50%; inhibition at 10 µM [6]: < 50%
